Where two headings read alike, the source gives them in different places.
Columns and labels:
SYK = SYK (Homo sapiens, UniProt P43405); assay: Whole blood assays of SYK inhibition; assay type: cell-based
[1] = tested on: panel of 392 wild-type (non-mutant) protein kinases; assay: KINOMEscan ATP binding site competition assay, kinase panel selectivity; conditions: including JAK and vascular endothelial growth factor receptor; data not shown
[2] = tested on: human PBMCs, CD3+ T cells; assay: IL-2-induced STAT5 phosphorylation in CD3+ T cells (flow cytometry); assay type: cell-based; conditions: for effect on phosphorylation of STAT5: at 1 μM, IL-2 stimulated CD3+ T cells
Procedure: (§2) Human PBMCs were pre-incubated with compound for 30 minutes followed by 20 minutes stimulation with IL-2 (100 ng/ml) for signal transducers and activators of transcription 5 (STAT5) phosphorylation or IFNγ (100 ng/ml) for STAT1 phosphorylation.

[3] = tested on: DBA1/J mice with collagen-induced arthritis; assay: Murine collagen-induced arthritis model (mCIA); assay type: in vivo, mouse
Procedure: The mCIA model has been reported previously. Briefly, DBA1/J male mice were injected intradermally with 0.1 ml bovine type II collagen (100 μg; Chondrex Inc., Redmond, WA, USA) and complete Freund’s adjuvant (200 μg; Difco, Detroit, MI, USA) followed by second immunization on day 21 with bovine type II collagen and incomplete Freund adjuvant. […] Clinical arthritis scores (1 to 4) of individual paws were assessed and the arthritic index for each mouse was determined by adding the individual scores of all four paws. The level of cytokines in serum was determined by Luminex analysis (Millipore, Billerica, MA, USA). Hind paws from CIA mice were collected into 10% neutral buffered formalin. After decalcification in 10% formic acid, paws were embedded in paraffin, sectioned at 8 μm and stained with toluidine blue. Inflammation (infiltration of inflammatory cells), pannus, cartilage damage, and bone resorption were scored in a double-blinded fashion by a board-certified pathologist at Boulder BioPATH, Inc. (Boulder, CO, USA) using standard criteria, with 0 being normal and 5 being the most severe.

[4] = tested on: human plasmacytoid dendritic cells; assay: TLR9-mediated pDC activation (ODN2216, 2 days); assay type: cell-based; conditions: human pDCs, concentration-dependent
Procedure: Human plasmacytoid dendritic cells (pDCs) were isolated by negative selection from PBMCs with the human pDC Isolation Kit (Miltenyi Biotec, Auburn, CA, USA). The purity was confirmed with CD303 (BDCA-2; Miltenyi Biotec) staining and stimulated with ODN2216 (1 μM) for 2 days. The production of IFNα and TNFα was measured by AlphaLISA.

JAK1 = assay: KINOMEscan ATP binding site competition assay; conditions: 1 μM compound; truncated recombinant JAK1
JAK3 = JAK3 (Homo sapiens, UniProt P52333); assay: KINOMEscan ATP binding site competition assay; conditions: 1 μM compound; truncated recombinant JAK3
JAK3, sequence (P52333 811-1124 limits assumed): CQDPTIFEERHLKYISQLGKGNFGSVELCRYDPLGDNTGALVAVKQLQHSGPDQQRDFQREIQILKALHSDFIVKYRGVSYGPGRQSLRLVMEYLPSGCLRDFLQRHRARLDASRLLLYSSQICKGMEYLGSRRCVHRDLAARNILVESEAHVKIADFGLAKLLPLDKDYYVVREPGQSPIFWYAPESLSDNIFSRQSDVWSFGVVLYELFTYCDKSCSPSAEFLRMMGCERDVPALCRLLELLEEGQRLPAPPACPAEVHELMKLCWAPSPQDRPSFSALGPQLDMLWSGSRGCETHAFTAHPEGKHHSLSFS

Jurkat T-cell line = assay: Anti-CD3-induced calcium flux (FLIPR); assay type: cell-based; conditions: Homo sapiens, read-out: IC50, T-cell receptor (anti-CD3)-induced calcium flux
[5] = tested on: human PBMCs, CD14+ monocytes; assay: IFNγ-induced STAT1 phosphorylation in CD14+ monocytes (flow cytometry); assay type: cell-based; conditions: IFNγ-treated CD14+ monocytes; except at the highest concentration tested (10 μM)
Procedure: as §2

Ramos cells = assay: Western blot of anti-IgM induced phosphorylation of BTK, PLCγ2, AKT and ERK; conditions: 1 μM pretreatment
Source text: The protein phosphorylation was detected with rabbit antibodies of anti-phospho-BTK(Y223) (Epitomics Inc., Burlingame, CA, USA), anti-phospho-PLCγ2(Y1217), anti-phospho-ERK(T202/Y204) or anti-phospho-AKT(S473).

[6] = tested on: mouse bone marrow macrophages; assay: RANK-L/M-CSF mediated osteoclastogenesis, TRAP+ multinuclear cells; assay type: cell-based; conditions: in the presence of more than 0.4 μM
Procedure: Bone marrow cells were obtained from C57BL/6 mouse tibiae and suspended in culture medium supplemented with monocyte colony-stimulating factor (100 ng/ml) for 16 hours. […] The cells were stained using a tartrate-resistant acid phosphate (TRAP) staining kit (Sigma, St Louis, MO, USA). TRAP^+ multinuclear cells were counted for each well under a microscope.

[7] = tested on: mouse whole blood B220+ B cells; assay: Ex vivo anti-IgD-induced CD69 expression on B220+ B cells in whole blood of dosed CIA mice; conditions: 2 and 5 hours post dose
Ramos B-cell line = assay: cells; conditions: Homo sapiens, read-out: IC50, anti-IgM-activated calcium flux
Procedure: Baseline fluorescence was recorded for about 20 seconds followed by stimulation with mouse anti-human IgM (10 μg/ml, clone M2E6; Antibody Solutions Inc., Mountain View, CA, USA) for Ramos cells or mouse anti-human CD3 (10 μg/ml; BD Biosciences) for Jurkat cells, and the maximal fluorescent counts in each well were recorded.

human B cells = assay: TLR9-mediated plasmablast differentiation (ODN2006 + IL-2, 6 days); assay type: cell-based
Procedure: Human B cells were differentiated with ODN2006 (50 nM) and IL-2 (10 ng/ml) for 6 days. The differentiated cells were stained with V450 anti-CD38, FITC anti-CD20, PE anti-CD19 and APC intracellular IgM. The plasmablasts were identified as CD19^+CD38^+CD20^–IgM^+ cells. The production of IgG and IgM was quantitated by AlphaLISA.

human monocytes = assay: cells; conditions: Monocyte
Procedure: Peripheral blood mononuclear cells (PBMCs) were isolated by centrifugation from heparinized blood in a Vacutainer CPT Cell Preparation Tube (BD Biosciences). PBMCs were cultured for 1 to 2 hours to allow monocytes to adhere, and nonadherent cells were washed away. The monocytes were stimulated with human IgG-coated (Jackson Immunology, West Grove, PA, USA) copolymer microsphere beads (Thermo Scientific, Fremont, CA, USA) or lipopolysaccharide (1 ng/ml; Sigma-Aldrich) for 4 hours. TNFα levels in supernatants were determined by enzyme-linked immunosorbent assay kits (BD Biosciences).

human PBMCs = assay: cells; conditions: PBMC, read-out: IC50, BCR-dependent cell surface CD69 expression in CD20+ B cells
Procedure: (§1) The samples were stained with PE mouse anti-human CD20 and APC mouse anti-human CD69. The percentage of activated (CD69^hi) B cells was determined using unstimulated (negative control) and stimulated (positive control) samples as references.

human whole blood = assay: cells; conditions: B-cell, read-out: IC50, BCR-dependent cell surface CD69 expression in CD20+ B cells
Procedure: as §1

human mast cells = assay: cells; conditions: Mast cell, read-out: IC50, IgE/antigen-induced histamine release
Procedure: The method has been reported previously by our group. […] For measuring histamine release, cells were sensitized with 0.1 μg/ml anti-4-hydroxy-3-nitrophenylacetyl hapten IgE (Serotec, Raleigh, NC, USA) overnight, and then cross-linked with 1 μg/ml NP(30)-BSA (Biosearch Technologies, Novato, CA, USA) for 30 minutes. Supernatants were collected and assayed for histamine release using a histamine enzyme immunoassay (Oxford Biomedical Research, Rochester Hills, MI, USA). The percentage of histamine release was calculated by comparing various treatments with positive control.

[8] = Pharmacokinetics after single oral dosing in mouse; assay type: in vivo; conditions: plasma

Compound: COc1cc(Nc2ncc(F)c(Nc3ccc4c(n3)N(COP(=O)(O)O)C(=O)C(C)(C)O4)n2)cc(OC)c1OC [R788]
- SYK inhibition in whole blood assays (SYK): relatively weak
- kinase selectivity in the KinaseScan assay [1]: inhibiting one-half of the kinome

Compound: C[C@@H]1CCN(C(=O)CC#N)C[C@@H]1N(C)c1ncnc2[nH]ccc12 [tofacitinib, reference compound]
- effect on phosphorylation of STAT5 [2]: completely blocked

Compound: Cc1ccc(Nc2cc(N[C@@H]3CCCC[C@@H]3N)nnc2C(N)=O)nc1C [RO9021, 6-[(1R,2S)-2-amino-cyclohexylamino]-4-(5,6-dimethyl-pyridin-2-ylamino)-pyridazine-3-carboxylic acid amide]
- histopathology of hind paws (inflammation, pannus, cartilage damage, bone resorption) ([3]; 5 and 45 mg/kg orally daily for 14 days): vehicle-treated, but not RO9021-treated, mice had severe inflammation and cartilage damage
- arthritis progression, clinical scores ([3]; 5 and 45 mg/kg orally daily for 14 days from day 21, significant in both groups vs vehicle): inhibited arthritis progression in a dose-dependent manner
- serum level of IL-6 ([3]; after 14 days of treatment): markedly reduced
- serum level of KC(CXCL1) ([3]; after 14 days of treatment): markedly reduced
- production of IFNα [4]: inhibited
- production of TNFα [4]: inhibited
- competition with compound (JAK1) (JAK1): more than 90%
- competition with compound (JAK3) (JAK3): more than 90%
- IC50 (Jurkat T-cell line): 910 ± 270 nM
- effect on phosphorylation of STAT1 [5]: no effect
- IC50 ([2]; Homo sapiens, T-cell, read-out: IC50, IL-2-induced STAT5 phosphorylation): 1320 ± 660 nM
- effect on phosphorylation of STAT5 [2]: no significant effect
- anti-IgM induced phosphorylation of BTK, PLCγ2, AKT and ERK (Ramos cells): inhibited
- TRAP+ cells [6]: barely detectable
- anti-IgD-induced CD69 expression on B cells (B220+), ex vivo [7]: inhibited
- IC50 (Ramos B-cell line): 78 ± 21 nM
- production of IL-6 in the supernatant (human B cells): reduced
- production of IgG in the supernatant (human B cells): reduced
- production of IgM in the supernatant (human B cells): reduced
- IC50 (human monocytes; 4 h, read-out: IC50, TNFα production induced by crosslinking of FcγR): 63 ± 19 nM
- IC50 (human monocytes; read-out: IC50, TLR4-dependent TNFα production): 2900 ± 900 nM
- IC50 (human PBMCs): 83 nM
- IC50 (human whole blood): 87 nM
- IC50 (human mast cells): 22.8 ± 1.7 nM
- AUC ([8]; single oral dose 5 mg/kg): 3.85 µM·h
- Cmax ([8]; single oral dose 5 mg/kg): 0.695 µM
- Tmax ([8]; single oral dose 5 mg/kg): 1 h
- half-life ([8]; single oral dose 5 mg/kg): 4.34 h
- AUC ([8]; single oral dose 45 mg/kg): 35.8 µM·h
- Cmax ([8]; single oral dose 45 mg/kg): 5.76 µM
- Tmax ([8]; single oral dose 45 mg/kg): 0.5 h
- half-life ([8]; single oral dose 45 mg/kg): 3.54 h
